From patent US20070203233A1, “NOVEL 2-(alpha-N-PENTANONYL)BENZOATES, THEIR PREPARATION AND USE” (priority 2004, published 2007)
Marks after values point to notes of the source that are not given here.

What was measured:
[1] = test system: model rats of middle cerebral artery thrombosis (MCAT); assay: Effects on cerebral infarct area of MCAT rats; assay type: in vivo, SD rats; settings: for Cerebral infarct tissue weight/total brain weight (%): 24 h after operation, TTC staining; for Inhibition (%): cerebral infarct vs. model group
Thermal Stability = assay type: physicochemical; settings: 60° C., 10 days, HPLC
in vivo = settings: both, ICR, mouse, po
[2] = test system: thrombus of artery-vein bypass in rats; assay: Effects on thrombosis of artery-vein bypass in rats; assay type: in vivo, SD rats; settings: for Dry-weight of thrombus / Wet-weight of thrombus: once per day for 3 days; for Inhibition (%) of dry-weight of thrombus / Inhibition (%) of wet-weight of thrombus: vs. thrombus model group
Experimental: Testing methods are described in Chen-Qi, “Methodology for Pharmacological Research of Chinese Medicine”,People's Medical Publishing House, Sep. 1993, 1st ed., page 510. […] Equivalent amount of the vehicle was administered to the thrombus model group. The operation was conducted immediately after the final administration. […] The operation was conducted to separate the right common carotid artery and the left external jugular vein. A pre-weighed suture # 0 of 8 cm long was placed into the middle part of a polyethylene tube of 10 cm long. Then the tube was filled with normal saline, and connected at both ends to the cannula of 3 cm long filled with normal saline. One end of the tube was inserted into the left external jugular vein, and another end was inserted into the right common carotid artery. The blood flowed from the right common carotid artery to the polyethylene tube, and then flow back to the left external jugular vein, so as to construct a bypass circulation. […] The wet-weight of the thrombus was obtained by subtracting the weight of the suture and the paper from this total wet weight. […] The thrombus was taken out and weighed to obtain a total dry weight. The dry weight of the thrombus was obtained by subtracting the weight of the suture and the paper form this total dry weight. The results in each group were compared by student's t test. […] Testing Results

[3] = test system: model rats of middle cerebral artery thrombosis (MCAT); assay: Effects on neural symptoms of MCAT rats; assay type: in vivo, SD rats; settings: for Scores 6 hours: behavioral score 6 h after operation (full mark 4); for Scores 24 hours: behavioral score 24 h after operation (full mark 4)
Experimental: (1) Grouping and administration: […] Preventive administration was conducted by gavage one time per day for 3 days prior to the model being established. The model was established on day 4, and a dosage of one day was administered by gavage immediately after the model was established. Another dosage of one day was again administered by gavage 12 hours after the model was established. Equivalent amount of the vehicle was administered to the control group. […] Description of technique and early neuropathological consequences following middle cerebral artery occlusion. J Cereb Blood Flow Metab, 1981, 1: 53), and fixed in lateral decubitus position. A bowtype incision of 1.5 cm long was made at the midpoint between canthus and exterior auditory canal. Temporalis was broken and incised to expose temporal bone. […] The filter paper was removed after 30 min when the vascular became black. The localized tissue was washed with physiological brine, and sutured layer by layer. Then rats were placed back into the cages. By following the modified method of Bederson et al. […] (2) The animals were placed onto a smooth ground, and the resistance of contralateral shoulder to push was examined. “0” was recorded if the resistance of both shoulders were equal and strong; and “1” was recorded if the resistance of contralateral shoulder to push was decreased. […] (4) The tail of the rat was lifted 30 cm high away from the ground, and “1” was recorded if the animals ceaselessly circled contralaterally. “4” was full mark in accordance with the above-mentioned standard. The higher the score was, more severe the behavioral disorder of the animal was. 4. Results: The behavioral scores in each group were compared by student t test.

The Stability to Light = assay type: physicochemical; settings: 10 days, HPLC

SMILES: CCCCC(=O)c1ccccc1C(=O)O [Calcium 2-(α-n-pentanonyl)benzoate, calcium 2-(α-n-pentanonyl)benzoate]
- Cerebral infarct tissue weight/total brain weight (%) ([1]; 50 mg/kg by gavage): 5.01 ± 1.79 %
- Inhibition (%) ([1]; 50 mg/kg by gavage): 32.39%
- cerebral infarct as compared with the model group (in words) ([1]; 50 mg/kg, P<0.05): significantly reduced
- Cerebral infarct tissue weight/total brain weight (%) ([1]; 100 mg/kg by gavage): 5.23 ± 2.04 %
- Inhibition (%) ([1]; 100 mg/kg by gavage): 34.13%
- Cerebral infarct tissue weight/total brain weight (%) ([1]; 200 mg/kg by gavage): 4.65 ± 2.13 %
- Inhibition (%) ([1]; 200 mg/kg by gavage): 38.90%
- decomposed product detected, thermal stability (in words) (Thermal Stability): no decomposed product
- LD50 at 7 days (in vivo): 2680 mg/kg
- Dry-weight of thrombus ([2]; 50 mg/kg by gavage): 40.2 ± 18.0 mg
- Wet-weight of thrombus ([2]; 50 mg/kg by gavage): 199.8 ± 30.4 mg
- Inhibition (%) of dry-weight of thrombus ([2]; 50 mg/kg by gavage): 21.64%
- Inhibition (%) of wet-weight of thrombus ([2]; 50 mg/kg by gavage): 22.92%
- Dry-weight of thrombus ([2]; 100 mg/kg by gavage): 34.2 ± 13.1 mg
- Wet-weight of thrombus ([2]; 100 mg/kg by gavage): 189.8 ± 52.3 mg
- Inhibition (%) of dry-weight of thrombus ([2]; 100 mg/kg by gavage): 33.33%
- Inhibition (%) of wet-weight of thrombus ([2]; 100 mg/kg by gavage): 26.77%
- Dry-weight of thrombus ([2]; 200 mg/kg by gavage): 30.4 ± 13.9 mg
- Wet-weight of thrombus ([2]; 200 mg/kg by gavage): 163.2 ± 64.4 mg
- Inhibition (%) of dry-weight of thrombus ([2]; 200 mg/kg by gavage): 40.74%
- Inhibition (%) of wet-weight of thrombus ([2]; 200 mg/kg by gavage): 37.04%
- Scores 6 hours ([3]; 50 mg/kg by gavage): 3.18 ± 0.60
- Scores 24 hours ([3]; 50 mg/kg by gavage): 2.73 ± 0.65**^,s
- Scores 6 hours ([3]; 100 mg/kg by gavage): 3.40 ± 0.52
- Scores 24 hours ([3]; 100 mg/kg by gavage): 2.90 ± 0.57
- Scores 6 hours ([3]; 200 mg/kg by gavage): 3.27 ± 0.79
- Scores 24 hours ([3]; 200 mg/kg by gavage): 2.45 ± 0.82
- decomposed product detected, stability to light (in words) (The Stability to Light): no decomposed product
